Read-outs that look alike come from different tables or passages of the source.
Columns and labels:
glucagon receptor (GCGR) = molecular target: T1, glucagon receptor (GCGR) (Homo sapiens, UniProt P47871); test: I125-glucagon binding assay (competition, GCGR membrane fractions)
T1 construct: expressed in transfected cells; host or cells: CHO-K1 cells overexpressing GCGR (membrane fractions)
Procedure, shortened: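 Competition of 0.0625 nM (final) I^125-glucagon for 30 min at 25° C, after 5 min compound preincubation, using 7.5 μg/well GCGR-overexpressing CHO-K1 membranes in 50 mM Tris pH 7.4, 0.5% BSA. Filtration onto PEI-coated GF/B, micro-beta counting, and non-linear regression gave IC50.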

[1] = molecular target: T2, glucagon receptor (GCGR) overexpressed CHO-K1 cells or human primary hepatocytes (Homo sapiens, UniProt P47871); test: Glucagon cAMP inhibition assay (Cisbio cAMP Dynamic 2 HTRF); type: cell-based
T2 construct: expressed in transfected cells; host or cells: GCGR overexpressed CHO-K1 cells or human primary hepatocytes (endogenous receptor)
T2 sequence (P47871 26-477): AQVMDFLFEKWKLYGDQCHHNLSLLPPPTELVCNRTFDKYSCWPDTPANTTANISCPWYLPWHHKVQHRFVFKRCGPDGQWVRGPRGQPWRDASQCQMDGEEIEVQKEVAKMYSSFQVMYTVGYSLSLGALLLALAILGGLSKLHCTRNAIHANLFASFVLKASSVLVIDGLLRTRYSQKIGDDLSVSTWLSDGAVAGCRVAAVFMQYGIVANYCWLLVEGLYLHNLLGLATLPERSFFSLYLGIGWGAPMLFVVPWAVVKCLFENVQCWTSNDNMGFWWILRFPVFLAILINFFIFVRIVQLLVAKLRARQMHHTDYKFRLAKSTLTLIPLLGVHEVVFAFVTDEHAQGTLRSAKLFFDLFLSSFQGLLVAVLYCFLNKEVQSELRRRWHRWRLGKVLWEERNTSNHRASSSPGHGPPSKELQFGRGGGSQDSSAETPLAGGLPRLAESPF
Procedure, shortened: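 HTRF read-out of glucagon-induced cAMP, with IC50 from non-linear regression. Cells (GCGR CHO-K1 or human primary hepatocytes) in HBSS/0.1% BSA/800 nM IBMX took compound dilutions for 30 min (final DMSO 1%), then EC50-level glucagon for 30 min at room temperature, then a 60 min lysis/detection step.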

[2] = competition with I125-glucagon 0.0625 nM, membrane fractions of GCGR overexpressed CHO-K1 cells
[3] = inhibition of glucagon (EC50 concentration) induced cAMP production

T1 sequence (P47871 26-477): as above

Structure (SMILES) | IC50 (glucagon receptor (GCGR)) [µM] | IC50 cAMP [1] [nM] | IC50 (glucagon receptor (GCGR); [2]) [µM] | IC50 cAMP [1, 3] [nM] | IC50 (glucagon receptor (GCGR); uM) [µM]
CC(C)(C)c1ccc(-c2ccc(OC[C@@H](Nc3ccc(C(=O)NC[C@@H](O)C(=O)O)cc3)c3ccccc3)nc2)cc1 [Compound 15-6, (R)-3-(4-(((S)-2-((5-(4-(tert-butyl)phenyl)pyridin-2-yl)oxy)-1-phenylethyl)amino)benzamido)-2-hydroxypropanoic Acid] | 0.172 | >30000 |  |  | 
CCCC[C@@H](COc1ccc(-c2ccc(Cl)cc2Cl)c(Cl)c1)Nc1ccc(C(=O)NCc2nnn[nH]2)cc1 [Compound 3-13, (S)—N-((1H-tetrazol-5-yl)methyl)-4-((1-((2,2′,4′-trichloro-[1,1′-biphenyl]-4-yl)oxy)hexan-2-yl)amino)benzamide] |  |  | 0.092 | 279.9 | 
CCCC[C@@H](COc1ccc(-c2ccc(Cl)cc2Cl)c(F)c1)Nc1ccc(C(=O)NCCC(=O)O)cc1 [Compound 8-16, (S)-3-(4-((1-((2′,4′-dichloro-2-fluoro-[1,1′-biphenyl]-4-yl)oxy)hexan-2-yl)amino)benzamido)propanoic Acid] |  |  | 0.089 | 135 | 
CC(C)[C@@H](COc1ccc(-c2cc3ccccc3o2)c(Cl)c1)Nc1ccc(C(=O)NCc2nnn[nH]2)cc1 [Compound 3-5, (S)—N-((1H-tetrazol-5-yl)methyl)-4-((1-(4-(benzofuran-2-yl)-3-chlorophenoxy)-3-methylbutan-2-yl)amino)benzamide] |  |  | 0.117 | 1863 | 
CC(C)C[C@@H](COc1cc(F)c(-c2ccc(C(F)(F)F)cc2Cl)c(F)c1)Nc1ccc(C(=O)NCCC(=O)O)cc1 [Compound 7-5, (S)-3-(4-((1-((2′-chloro-2,6-difluoro-4′-(trifluoromethyl)-[1,1-biphenyl]-4-yl)oxy)-4-methylpentan-2-yl)amino)benzamido)propanoic Acid] |  |  | 0.075 | 811 | 
CCC(C)[C@@H](COc1ccc(-c2ccc(C(F)(F)F)cc2)cc1)Nc1ccc(C(=O)NCCC(=O)O)cc1 (stereo partly drawn) [Compound 1-5, 3-(4-(((2S)-3-methyl-1-((4′-(trifluoromethyl)-[1,1′-biphenyl]-4-yl)oxy)pentan-2-yl)amino)benzamido)propanoic Acid] |  |  | 0.213 | 839 | 
CC(C)[C@H](COc1ccc(-c2cc3ccccc3o2)cc1)Nc1ccc(C(=O)NCCC(=O)O)cc1 [Compound 1-34, (R)-3-(4-((1-(4-(benzofuran-2-yl)phenoxy)-3-methylbutan-2-yl)amino)benzamido) propanoic Acid] |  |  | 0.113 | 238.7 | 
CC(C)(C)[C@@H](COc1ccc(-c2ccc(Cl)cc2Cl)cc1)Nc1ccc(C(=O)NCCC(=O)O)cc1 [Compound 1-36, (S)-3-(4-((1-((2′,4′-dichloro-[1,1′-biphenyl]-4-yl)oxy)-3,3-dimethylbutan-2-yl)amino)benzamido)propanoic Acid] |  |  | 0.141 | 243 | 
CC(C)[C@@H](CSc1ccc(-c2cc3ccccc3o2)cc1)Nc1ccc(C(=O)NCCC(=O)O)cc1 [Compound 5-1, (S)-3-(4-((1-((4-(benzofuran-2-yl)phenyl)thio)-3-methylbutan-2-yl)amino)benzamido)propanoic Acid] |  |  | 2.04 | 14405 | 
CCCC[C@@H](COc1ccc(-c2cc3ccccc3o2)cn1)Nc1ccc(C(=O)NCCC(=O)O)cc1 [Compound 15-22, (S)-3-(4-((1-((5-(benzofuran-2-yl)pyridin-2-yl)oxy)hexan-2-yl)amino)benzamido)propanoic Acid] | 0.089 | 168 |  |  | 
CCC(C)[C@@H](COc1cnc(-c2ccc(C(F)(F)F)cc2Cl)nc1)Nc1ccc(C(=O)NCCC(=O)O)cc1 (stereo partly drawn) [Compound 12-8, 3-(4-(((2S)-1-((2-(2-chloro-4-(trifluoromethyl)phenyl)pyrimidin-5-yl)oxy)-3-methylpentan-2-yl)amino)benzamido)propanoic Acid] |  |  | 0.331 | 2719 | 
CCCC[C@@H](COc1ccc(-c2ccc(C(F)(F)F)cc2)cc1)Nc1ccc(C(=O)NCCC(=O)O)cc1 [Compound 1-15, (S)-3-(4-((1-((4′-(trifluoromethyl)-[1,1′-biphenyl]-4-yl)oxy)hexan-2-yl)amino)benzamido)propanoic Acid] |  |  | 0.211 | 338.8 | 
CCCC[C@@H](COc1ccc(-c2ccc(C(F)(F)F)cc2Cl)cn1)Nc1ccc(C(=O)NCCC(=O)O)cc1 [Compound 15-25, (S)-3-(4-((1-((5-(2-chlor-4-(trifluoromethyl)phenyl)pyridin-2-yl)oxy)hexan-2-yl)amino)benzamido)propanoic Acid] | 0.218 | 245 |  |  | 
CC(C)[C@@H](COc1cc(F)c(-c2ccc(C(F)(F)F)cc2F)c(F)c1)Nc1ccc(C(=O)NCCC(=O)O)cc1 [Compound 7-4, (S)-3-(4-((3-methyl-1-((2,2′,6-trifluoro-4′-(trifluoromethyl)-[1,1′-biphenyl]-4-yl)oxy)butan-2-yl)amino)benzamido)propanoic Acid] |  |  | 0.182 | 165 | 
CC(C)[C@@H](COc1ccc(-c2ccc(C(F)(F)F)cc2)cn1)Nc1ccc(C(=O)NCCC(=O)O)cc1 [Compound 15-7, (S)-3-(4-((3-methyl-1-((5-(4-(trifluoromethyl)phenyl)pyridin-2-yl)oxy)butan-2-yl)amino)benzamido)propanoic Acid] | 0.753 | 258.8 |  |  | 
O=C(O)CCNC(=O)c1ccc(N[C@H](COc2ccc(C(F)(F)F)cn2)c2ccc(-c3ccc(C(F)(F)F)cc3)cc2)cc1 [Compound 15-27, (S)-3-(4-((1-(4′-(trifluoromethyl)-[1,1′-biphenyl]-4-yl)-2-((5-(trifluoromethyl)pyridin-2-yl)oxy)ethyl)amino)benzamido)propanoic Acid] | 0.101 | 316 |  |  | 
CC(C)(C)c1nnc(-c2ccc(OC[C@@H](Nc3ccc(C(=O)NCCC(=O)O)cc3)c3ccc(-c4ccc(C(F)(F)F)cc4)cc3)nc2)o1 [Compound 15-30, (S)-3-(4-((2-((5-(5-(tert-butyl)-1,3,4-oxadiazol-2-yl)pyridin-2-yl)oxy)-1-(4′-(trifluoromethyl)-[1,1′-biphenyl]-4-yl)ethyl)amino)benzamido)propanoic Acid] | 2 | 18257 |  |  | 
CC[C@H](C)[C@@H](COc1ccc(-c2cc3ccccc3o2)cn1)Nc1ccc(C(=O)NCCC(=O)O)cc1 [Compound 15-15, 3-(4-(((2S,3S)-1-((5-(benzofuran-2-yl)pyridin-2-yl)oxy)-3-methylpentan-2-yl)amino)benzamido)propanoic Acid] | 0.207 | 32.73 |  |  | 

Next, values leading:

IC50 (glucagon receptor (GCGR)) [µM] | IC50 cAMP [1] [nM] | IC50 (glucagon receptor (GCGR); [2]) [µM] | IC50 cAMP [1, 3] [nM] | IC50 (glucagon receptor (GCGR); uM) [µM] | Structure (SMILES)
2.73 | 2719 |  |  |  | C[C@@H](Cc1ccc(-c2ccc(C(F)(F)F)cc2)cc1)Nc1ccc(C(=O)NCCC(=O)O)cc1 [Compound 19-3, (S)-3-(4-((1-(4′-(trifluoromethyl)-[1,1′-biphenyl]-4-yl)propan-2-yl)amino)benzamido)propanoic Acid]
1.31 | 1126 |  |  |  | CCCOC[C@H](Cc1ccc(-c2cccc(C(F)(F)F)c2)cc1)Nc1ccc(C(=O)NCCC(=O)O)cc1 [Compound 19-23, (S)-3-(4-((1-propoxy-3-(3′-(trifluoromethyl)-[1,1′-biphenyl]-4-yl)propan-2-yl)amino)benzamido)propanoic Acid]
> 30 | >30000 |  |  |  | CC[C@H](C)[C@@H](COc1nnc(-c2cc3ccccc3o2)o1)Nc1ccc(C(=O)NCCC(=O)O)cc1 [Compound 22-7, 3-(4-(((2S,3 S)-1-((5-(benzofuran-2-yl)-1,3,4-oxadiazol-2-yl)oxy)-3-methylpentan-2-yl)amino)benzamido)propanoic Acid]
3.7 | 1729 |  |  |  | CCCOC[C@H](Cc1ccc(-c2c(C)cc(C)cc2C)cc1)Nc1ccc(C(=O)NCCC(=O)O)cc1 [Compound 19-16, (S)-3-(4-((1-propoxy-3-(2′,4′,6′-trimethyl-[1,1′-biphenyl]-4-yl)propan-2-yl)amino)benzamido)propanoic Acid]
0.974 | 22191 |  |  |  | CCC(C)[C@H](Nc1ccc(C(=O)NCCC(=O)O)cc1)c1nnc(-c2oc3ccccc3c2C)o1 (stereo partly drawn) [Compound 20-2, 3-(4-(((1S)-2-methyl-1-(5-(3-methylbenzofuran-2-yl)-1,3,4-oxadiazol-2-yl)butyl)amino)benzamido)propanoic Acid]
 | 208 |  |  | > 10 | CCOC(=O)CCNC(=O)c1ccc(N[C@H](Cc2ccccc2)C(=O)Nc2ccc(C(F)(F)F)cc2)cc1 [Compound 24-3, Ethyl (R)-3-(4-((1-oxo-3-phenyl-1-((4-(trifluoromethyl)phenyl)amino)propan-2-yl)amino)benzamido)propanoate]
0.375 | 4100 |  |  |  | CC(C)C[C@H](Nc1ccc(C(=O)NCCC(=O)O)cc1)C(=O)Nc1ccc(-c2cc3ccccc3s2)cc1 [Compound 23-12, (S)-3-(4-((1-((4-(benzo[b]thiophen-2-yl)phenyl)amino)-4-methyl-1-oxopentan-2-yl)amino)benzamido)propanoic Acid]
17.6 | 9522 |  |  |  | CC(C)NC(=O)[C@@H](Cc1ccc(-c2cc3ccccc3o2)cc1)Nc1ccc(C(=O)NCCC(=O)O)cc1 [Compound 24-22, (R)-3-(4-((3-(4-(benzofuran-2-yl)phenyl)-1-(isopropylamino)-1-oxopropan-2-yl)amino)benzamido)propanoic Acid]
